Patent publication US8729062B2, “Benzyl azetidine derivatives as sphingosine 1-phosphate (S1P) receptor modulators” (Allergan, Inc., priority 2010, dated 2014)

Target: T1, human S1P1 receptor (Homo sapiens, UniProt P21453)
T1 construct: expressed in transfected cells; membranes used
Assay: GTP γ35S binding assay for S1P1 activity
Type: biochemical
Settings: membranes of cells stably expressing S1P1 receptor, agonist potency, test range 0.08 to 5,000 nM
Method: Compounds were synthesized and tested for S1P1 activity using the GTP γ^35S binding assay. These compounds may be assessed for their ability to activate or block activation of the human S1P1 receptor in cells stably expressing the S1P1 receptor.
GTP γ^35S binding was measured in the medium containing (mM) HEPES 25, pH 7.4, MgCl2 10, NaCl 100, dithitothreitol 0.5, digitonin 0.003%, 0.2 nM GTP γ^35S, and 5 μg membrane protein in a volume of 150 μl. Test compounds were included in the concentration range from 0.08 to 5,000 nM unless indicated otherwise. Membranes were incubated with 100 μM 5′-adenylylimmidodiphosphate for 30 min, and subsequently with 10 μM GDP for 10 min on ice. Drug solutions and membrane were mixed, and then reactions were initiated by adding GTP γ^35S and continued for 30 min at 25° C. Reaction mixtures were filtered over Whatman GF/B filters under vacuum, and washed three times with 3 mL of ice-cold buffer (HEPES 25, pH7.4, MgCl2 10 and NaCl 100). Filters were dried and mixed with scintillant, and counted for ^35S activity using a […]. Agonist-induced GTP γ^35S binding was obtained by subtracting that in the absence of agonist. Binding data were analyzed using a non-linear regression method. In case of antagonist assay, the reaction mixture contained 10 nM S1P in the presence of test antagonist at concentrations ranging from 0.08 to 5000 nM.

T1 sequence (P21453 whole entry): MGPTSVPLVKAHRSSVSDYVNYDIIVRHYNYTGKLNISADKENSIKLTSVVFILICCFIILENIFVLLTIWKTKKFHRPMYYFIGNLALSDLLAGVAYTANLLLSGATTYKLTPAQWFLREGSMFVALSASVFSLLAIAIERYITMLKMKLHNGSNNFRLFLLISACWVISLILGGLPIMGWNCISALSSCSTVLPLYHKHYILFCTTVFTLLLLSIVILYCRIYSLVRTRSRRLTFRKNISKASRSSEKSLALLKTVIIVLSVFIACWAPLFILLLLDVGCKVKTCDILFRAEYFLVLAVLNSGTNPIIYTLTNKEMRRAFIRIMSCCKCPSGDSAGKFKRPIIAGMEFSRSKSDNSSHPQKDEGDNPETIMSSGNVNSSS

EC50 [nM]	Structure (SMILES)
17.1	Cc1ccc(CC(c2cc(F)cc(F)c2)c2nc(-c3ccc(CN4CC(C(=O)O)C4)cc3)no2)cc1C (centres unmarked) [1-(4-{5-[1-(3,5-difluorophenyl)-2-(3,4-dimethylphenyl)ethyl]-1,2,4-oxadiazol-3-yl}benzyl)azetidine-3-carboxylic acid]
1240	O=C(O)C1CN(Cc2ccc(-c3noc(C(CC4CCCCC4)c4cccc(Cl)c4)n3)cc2)C1 (centres unmarked) [1-(4-{5-[1-(3-chlorophenyl)-2-cyclohexylethyl]-1,2,4-oxadiazol-3-yl}benzyl)azetidine-3-carboxylic acid]
29.9	Cc1ccc(CC(c2cncc(Cl)c2)c2nc(-c3ccc(CN4CC(C(=O)O)C4)cc3)no2)cc1C (centres unmarked) [1-(4-{5-[1-(5-chloropyridin-3-yl)-2-(3,4-dimethylphenyl)ethyl]-1,2,4-oxadiazol-3-yl}benzyl)azetidine-3-carboxylic acid]
134	Cc1ccc(CC(c2nc(-c3ccc(CN4CC(C(=O)O)C4)cc3)no2)c2cccs2)cc1C (centres unmarked) [1-(4-{5-[2-(3,4-dimethylphenyl)-1-(2-thienyl)ethyl]-1,2,4-oxadiazol-3-yl}benzyl)azetidine-3-carboxylic acid]
535	Cc1cc(C)cc(C(Cc2ccc(C)c(C)c2)c2nc(-c3ccc(CN4CC(C(=O)O)C4)cc3)no2)c1 (centres unmarked) [1-(4-{5-[2-(3,4-dimethylphenyl)-1-(3,5-dimethylphenyl)ethyl]-1,2,4-oxadiazol-3-yl}benzyl)azetidine-3-carboxylic acid]
76.7	Cc1ccc(CC(c2ccsc2)c2nc(-c3ccc(CN4CC(C(=O)O)C4)cc3)no2)cc1C (centres unmarked) [1-(4-{5-[2-(3,4-dimethylphenyl)-1-(3-thienyl)ethyl]-1,2,4-oxadiazol-3-yl}benzyl)azetidine-3-carboxylic acid]
209	Cc1ccc(CC(c2nc(-c3ccc(CN4CC(C(=O)O)C4)cc3)no2)c2cccs2)cc1 (centres unmarked) [1-(4-{5-[2-(4-methylphenyl)-1-(2-thienyl)ethyl]-1,2,4-oxadiazol-3-yl}benzyl)azetidine-3-carboxylic acid]
146	Cc1ccc(CC(c2ccsc2)c2nc(-c3ccc(CN4CC(C(=O)O)C4)cc3)no2)cc1 (centres unmarked) [1-(4-{5-[2-(4-methylphenyl)-1-(3-thienyl)ethyl]-1,2,4-oxadiazol-3-yl}benzyl)azetidine-3-carboxylic acid]
89.3	Cc1ccc(CC(c2cccc(C(F)(F)F)c2)c2nc(-c3ccc(CN4CC(C(=O)O)C4)cc3)no2)cc1C (centres unmarked) [1-[4-(5-{2-(3,4-dimethylphenyl)-1-[3-(trifluoromethyl)phenyl]ethyl}-1,2,4-oxadiazol-3-yl)benzyl]azetidine-3-carboxylic acid]
3.77	Cc1ccc(CC(c2cccc(Cl)c2)c2nc(-c3ccc(CN4CC(C(=O)O)C4)cc3)no2)cc1C (centres unmarked) [Compound 1, 1-(4-{5-[1-(3-Chlorophenyl)-2-(3,4-dimethylphenyl)ethyl]-1,2,4-oxadiazol-3-yl}benzyl)azetidine-3-carboxylic acid]
1.5	Cc1ccc(CC(c2cccc(F)c2)c2nc(-c3ccc(CN4CC(C(=O)O)C4)cc3)no2)cc1C (centres unmarked) [Compound 2, 1-(4-{5-[1-(3-fluorophenyl)-2-(3,4-dimethylphenyl)ethyl]-1,2,4-oxadiazol-3-yl}benzyl)azetidine-3-carboxylic acid]
